Laboratory results from US6130228A, “Polycyclic compounds” (priority 1995, dated 2000).
pIC50: −log10 of the molar value.

Tested on: 5-HT (serotonin) uptake
Test: not given
Type: biochemical, rat (Sprague Dawley)
Conditions: not given
Experimental: (§1) One male rat (Sprague Dawley) weighing approx. 200-250 g was sacrificed by cervical dislocation. The brain was dissected out and the cerebellum discarded. The brain was then weighed and 10 ml ice cold sucrose (0.32M) added per gram tissue. […] The pellet was discarded and the supernatant retained (crude synaptosomal preparation).
(§2) All tubes were set up in triplicate. […] 100 μl of the prepared synaptosomal preparation was added to each tube and incubated for 5 minutes in a shaking water bath at 37° C. Any reaction was stopped by plunging the tubes into an ice water bath. ^3 H NA (10^-7 M) or ^3 H 5-HT ([…]) was added to each tube and incubated for 5 minutes in a shaking water bath at 37° C. Any reaction was stopped by plunging the tubes into an ice-water bath. Accumulated monoamines were collected using a Brandell Cell Harvester under mild vacuum. Filters were rinsed (2×) using 4 ml of ice-cold 0.9% saline. Scintillation fluid was added (4 ml/tube). Radioactivity was measured on a scintillation counter.
(§3) Non-specific values were subtracted from total values. The control was taken as 100%. Drug effects were calculated as a percentage of control inhibitor value. A graph of log of drug concentration versus % control was plotted and IC50 values were calculated by interpolation.

Structure (SMILES) | 5-HT UPTAKE INHIBITION TACRINE RATIO
Nc1c2c(nc3c(O)cccc13)CCC2 [Compound 12, 9-Amino-5-hydroxy-2,3-dihydro-1H-cyclopenta [b] quinoline] | 0.524
Nc1c2c(nc3c(F)cccc13)CCC2 [Compound 13, 9-Amino-5-fluoro-2,3-dihydro-1H-cyclopenta-[1,2-b] quinoline] | 0.181
Nc1c2c(nc3cccc(F)c13)CCC2 [Compound 14, 9-Amino-8-fluoro-2,3-dihydro-1H-cyclopenta-[b] quinoline] | 0.177
Nc1c2c(nc3cc(F)ccc13)CCC2 [Compound 15, 9-amino-6-fluoro-2,3-dihydro-1H-cyclopenta [b] quinoline] | 0.345
Nc1c2c(nc3cccc(Cl)c13)CCC2 [Compound 16, 9-Amino-8-chloro-2,3-dihydro-1H-cyclopenta[b]quinoline] | 0.195
Nc1c2c(nc3ccc(Cl)cc13)CCC2 [Compound 19, 9-Amino-7-chloro-2,3-dihydro-1H-cyclopenta-[b] quinoline] | 1.086
Nc1c2c(nc3c(Cl)cccc13)CCC2 [Compound 22, 9-Amino-5-chloro-2,3-dihydro-1H-cyclopenta[b] quinoline] | 0.073
Nc1c2c(nc3ccccc13)CCC2 [Compound 29, 9-Amino-2,3-dihydro-[1H ]-cyclopenta-[b]-quinoline] | 0.362

Same assay, conditions: Table 3; read-out: 5-HT UPTAKE INHIBITION

Structure (SMILES) | pIC50
Nc1c2c(nc3c(O)cccc13)CCC2 [Compound 12, 9-Amino-5-hydroxy-2,3-dihydro-1H-cyclopenta [b] quinoline] | 4.84
Nc1c2c(nc3c(F)cccc13)CCC2 [Compound 13, 9-Amino-5-fluoro-2,3-dihydro-1H-cyclopenta-[1,2-b] quinoline] | 4.38
Nc1c2c(nc3cccc(F)c13)CCC2 [Compound 14, 9-Amino-8-fluoro-2,3-dihydro-1H-cyclopenta-[b] quinoline] | 4.37
Nc1c2c(nc3cc(F)ccc13)CCC2 [Compound 15, 9-amino-6-fluoro-2,3-dihydro-1H-cyclopenta [b] quinoline] | 4.66
Nc1c2c(nc3cccc(Cl)c13)CCC2 [Compound 16, 9-Amino-8-chloro-2,3-dihydro-1H-cyclopenta[b]quinoline] | 4.41
Nc1c2c(nc3ccc(Cl)cc13)CCC2 [Compound 19, 9-Amino-7-chloro-2,3-dihydro-1H-cyclopenta-[b] quinoline] | 5.15
Nc1c2c(nc3c(Cl)cccc13)CCC2 [Compound 22, 9-Amino-5-chloro-2,3-dihydro-1H-cyclopenta[b] quinoline] | 3.98
Nc1c2c(nc3ccccc13)CCC2 [Compound 29, 9-Amino-2,3-dihydro-[1H ]-cyclopenta-[b]-quinoline] | 4.68

Tested on: noradrenaline (NA) uptake
Test: Monoamine Uptake Inhibition Assay, noradrenaline (synaptosomal preparation)
Type: biochemical, rat (Sprague Dawley)
Conditions: not given
Experimental: as §1, §2, §3

Structure (SMILES) | NA UPTAKE INHIBITION TACRINE RATIO
Nc1c2c(nc3c(O)cccc13)CCC2 [Compound 12, 9-Amino-5-hydroxy-2,3-dihydro-1H-cyclopenta [b] quinoline] | 9.571
Nc1c2c(nc3c(F)cccc13)CCC2 [Compound 13, 9-Amino-5-fluoro-2,3-dihydro-1H-cyclopenta-[1,2-b] quinoline] | 9.571
Nc1c2c(nc3cccc(F)c13)CCC2 [Compound 14, 9-Amino-8-fluoro-2,3-dihydro-1H-cyclopenta-[b] quinoline] | 2.030
Nc1c2c(nc3cc(F)ccc13)CCC2 [Compound 15, 9-amino-6-fluoro-2,3-dihydro-1H-cyclopenta [b] quinoline] | 9.571
Nc1c2c(nc3cccc(Cl)c13)CCC2 [Compound 16, 9-Amino-8-chloro-2,3-dihydro-1H-cyclopenta[b]quinoline] | 3350.000
Nc1c2c(nc3ccc(Cl)cc13)CCC2 [Compound 19, 9-Amino-7-chloro-2,3-dihydro-1H-cyclopenta-[b] quinoline] | 2.481
Nc1c2c(nc3c(Cl)cccc13)CCC2 [Compound 22, 9-Amino-5-chloro-2,3-dihydro-1H-cyclopenta[b] quinoline] | 2.161
Nc1c2c(nc3ccccc13)CCC2 [Compound 29, 9-Amino-2,3-dihydro-[1H ]-cyclopenta-[b]-quinoline] | 11.167

Same assay, conditions: Table 3; read-out: NA UPTAKE INHIBITION

Structure (SMILES) | pIC50
Nc1c2c(nc3c(O)cccc13)CCC2 [Compound 12, 9-Amino-5-hydroxy-2,3-dihydro-1H-cyclopenta [b] quinoline] | 6.15
Nc1c2c(nc3c(F)cccc13)CCC2 [Compound 13, 9-Amino-5-fluoro-2,3-dihydro-1H-cyclopenta-[1,2-b] quinoline] | 6.15
Nc1c2c(nc3cccc(F)c13)CCC2 [Compound 14, 9-Amino-8-fluoro-2,3-dihydro-1H-cyclopenta-[b] quinoline] | 5.48
Nc1c2c(nc3cc(F)ccc13)CCC2 [Compound 15, 9-amino-6-fluoro-2,3-dihydro-1H-cyclopenta [b] quinoline] | 6.15
Nc1c2c(nc3cccc(Cl)c13)CCC2 [Compound 16, 9-Amino-8-chloro-2,3-dihydro-1H-cyclopenta[b]quinoline] | 8.70
Nc1c2c(nc3ccc(Cl)cc13)CCC2 [Compound 19, 9-Amino-7-chloro-2,3-dihydro-1H-cyclopenta-[b] quinoline] | 5.57
Nc1c2c(nc3c(Cl)cccc13)CCC2 [Compound 22, 9-Amino-5-chloro-2,3-dihydro-1H-cyclopenta[b] quinoline] | 5.51
Nc1c2c(nc3ccccc13)CCC2 [Compound 29, 9-Amino-2,3-dihydro-[1H ]-cyclopenta-[b]-quinoline] | 6.22
Nc1c2c(nc3ccccc13)CCCC2 [TACRINE, reference compound] | 5.17

Target: T1, Acetylcholinesterase (AChE) (Rattus norvegicus, UniProt P37136)
T1 construct: The brain was removed and homogenised; from tissue; host or cells: rat brain (male Sprague Dawley), Triton X100 detergent supernatant of the EDTA-buffer pellet
Test: biochemical
Type: biochemical, Male Rats (Sprague Dawley), brain
Conditions: not given
Experimental: (i) Enzyme Source for AChE
5 Male Rats (Sprague Dawley) weighing approx 250 g were killed by CO2 overdose and cervical dislocation.
The brain was removed and homogenised (9 strokes at 840 rpm with 4 volumes of phosphate buffer pH 7.4+10 mM (EDTA) and centrifuged at 27,000 g for 30 minutes.
The supernatant was discarded and the pellet resuspended in phosphate buffer with 10 mM EDTA+1- Triton X100 (2 ml/g wet weight). The crude homogenate was centrifuged at 27,000 g for 30-40 minutes.
The pellet was discarded and the supernatant was dispensed into 0.5 ml aliquots and stored at -20° C. until required.
Phosphate Buffer (0.1M. pH 7.4)
Made up to 500 ml with distilled H2 O, pH 7.4.
0.5 ml aliquots of brain (enzyme solution) as prepared above were thawed out. 2 ml of phosphate buffer was added to each aliquot. 2 ml of the enzyme solution was incubated with 2 ml PDS for 60 minutes at 0° C. The composition of blank, control and test solutions are given below:
0.9 ml phosphate buffer (0.1 M, pH 7.4)
0.85 ml phosphate buffer (0.1M, pH 7.4)
0.05 ml acetylthiocholine (5.2 mM)
(§4) 0.8 ml phosphate buffer (0.1M, pH 7.4)
0.05 ml Acetylthiocholine 5.2 mM
Change in absorbance was measured at 30 second intervals for 3 minutes at […]. The control was taken as 100%. Inhibitor was calculated as a percentage of the control. A graph of Log of inhibitor conc. versus % control was plotted and IC5. values calculated by interpolation.

T1 sequence (P37136 32-614): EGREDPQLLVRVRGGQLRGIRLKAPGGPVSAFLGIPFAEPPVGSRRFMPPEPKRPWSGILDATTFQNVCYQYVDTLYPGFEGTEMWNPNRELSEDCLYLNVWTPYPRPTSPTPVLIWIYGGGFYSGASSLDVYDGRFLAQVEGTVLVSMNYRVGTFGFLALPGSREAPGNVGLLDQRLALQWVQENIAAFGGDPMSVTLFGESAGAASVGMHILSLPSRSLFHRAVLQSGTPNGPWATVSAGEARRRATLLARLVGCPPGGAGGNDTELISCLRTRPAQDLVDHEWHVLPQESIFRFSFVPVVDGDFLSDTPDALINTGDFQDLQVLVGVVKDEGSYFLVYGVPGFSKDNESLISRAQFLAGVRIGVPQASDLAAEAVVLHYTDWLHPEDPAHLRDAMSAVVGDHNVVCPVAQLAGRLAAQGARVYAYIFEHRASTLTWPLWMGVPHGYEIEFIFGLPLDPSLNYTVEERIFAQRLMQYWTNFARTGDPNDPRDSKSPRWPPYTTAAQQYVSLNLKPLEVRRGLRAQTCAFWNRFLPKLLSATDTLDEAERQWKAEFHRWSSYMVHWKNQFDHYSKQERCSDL

Structure (SMILES) | AChE TACRINE RATIO
Nc1c2c(nc3c(O)cccc13)CCC2 [Compound 12, 9-Amino-5-hydroxy-2,3-dihydro-1H-cyclopenta [b] quinoline] | 0.078
Nc1c2c(nc3c(F)cccc13)CCC2 [Compound 13, 9-Amino-5-fluoro-2,3-dihydro-1H-cyclopenta-[1,2-b] quinoline] | 0.269
Nc1c2c(nc3cccc(F)c13)CCC2 [Compound 14, 9-Amino-8-fluoro-2,3-dihydro-1H-cyclopenta-[b] quinoline] | 1.000
Nc1c2c(nc3cc(F)ccc13)CCC2 [Compound 15, 9-amino-6-fluoro-2,3-dihydro-1H-cyclopenta [b] quinoline] | 1.219
Nc1c2c(nc3cccc(Cl)c13)CCC2 [Compound 16, 9-Amino-8-chloro-2,3-dihydro-1H-cyclopenta[b]quinoline] | 0.557
Nc1c2c(nc3ccc(Cl)cc13)CCC2 [Compound 19, 9-Amino-7-chloro-2,3-dihydro-1H-cyclopenta-[b] quinoline] | 0.060
Nc1c2c(nc3c(Cl)cccc13)CCC2 [Compound 22, 9-Amino-5-chloro-2,3-dihydro-1H-cyclopenta[b] quinoline] | 0.022
Nc1c2c(nc3ccccc13)CCC2 [Compound 29, 9-Amino-2,3-dihydro-[1H ]-cyclopenta-[b]-quinoline] | 1.393

Same assay, conditions: Table 2; read-out: AChE IC50

Structure (SMILES) | pIC50
Nc1c2c(nc3c(O)cccc13)CCC2 [Compound 12, 9-Amino-5-hydroxy-2,3-dihydro-1H-cyclopenta [b] quinoline] | 6.00
Nc1c2c(nc3c(F)cccc13)CCC2 [Compound 13, 9-Amino-5-fluoro-2,3-dihydro-1H-cyclopenta-[1,2-b] quinoline] | 6.54
Nc1c2c(nc3cccc(F)c13)CCC2 [Compound 14, 9-Amino-8-fluoro-2,3-dihydro-1H-cyclopenta-[b] quinoline] | 7.11
Nc1c2c(nc3cc(F)ccc13)CCC2 [Compound 15, 9-amino-6-fluoro-2,3-dihydro-1H-cyclopenta [b] quinoline] | 7.19
Nc1c2c(nc3cccc(Cl)c13)CCC2 [Compound 16, 9-Amino-8-chloro-2,3-dihydro-1H-cyclopenta[b]quinoline] | 6.85
Nc1c2c(nc3ccc(Cl)cc13)CCC2 [Compound 19, 9-Amino-7-chloro-2,3-dihydro-1H-cyclopenta-[b] quinoline] | 5.89
Nc1c2c(nc3c(Cl)cccc13)CCC2 [Compound 22, 9-Amino-5-chloro-2,3-dihydro-1H-cyclopenta[b] quinoline] | 5.46
Nc1c2c(nc3ccccc13)CCC2 [Compound 29, 9-Amino-2,3-dihydro-[1H ]-cyclopenta-[b]-quinoline] | 7.25

Tested on: not given
Test: not given
Conditions: not believed to be irreversible in nature; cited from earlier work

Structure (SMILES) | side effect
Nc1c2c(nc3ccccc13)CCCC2 [TACRINE, reference compound] | liver damage

Target: T2, Butyrylcholinesterase (BChE) (Equus caballus, UniProt P81908)
T2 construct: purchased Sigma c-7512
Test: biochemical
Conditions: not given
Experimental: The following components were utilised:
Phosphate Buffer (0.1M, pH 7.4)
Made up to 500 ml with distilled H2 O, pH 7.4
1 ml of enzyme solution (i), was incubated with 2 ml PDS for 60 minutes at 0° C.
Components of the assay blank, controls and test solutions are provided below:
0.9 ml phosphate buffer (0.1M, pH 7.4)
0.85 ml phosphate buffer (0.1 M, pH 7.4)
0.05 ml Acetylthiocholine (5.2 mM)
as §4
Control was taken as 100%. Inhibitor was calculated as a percentage of control. A graph of Log of inhibitor conc. versus % control was plotted and IC50 values calculated by interpolation.

T2 sequence (P81908 whole entry): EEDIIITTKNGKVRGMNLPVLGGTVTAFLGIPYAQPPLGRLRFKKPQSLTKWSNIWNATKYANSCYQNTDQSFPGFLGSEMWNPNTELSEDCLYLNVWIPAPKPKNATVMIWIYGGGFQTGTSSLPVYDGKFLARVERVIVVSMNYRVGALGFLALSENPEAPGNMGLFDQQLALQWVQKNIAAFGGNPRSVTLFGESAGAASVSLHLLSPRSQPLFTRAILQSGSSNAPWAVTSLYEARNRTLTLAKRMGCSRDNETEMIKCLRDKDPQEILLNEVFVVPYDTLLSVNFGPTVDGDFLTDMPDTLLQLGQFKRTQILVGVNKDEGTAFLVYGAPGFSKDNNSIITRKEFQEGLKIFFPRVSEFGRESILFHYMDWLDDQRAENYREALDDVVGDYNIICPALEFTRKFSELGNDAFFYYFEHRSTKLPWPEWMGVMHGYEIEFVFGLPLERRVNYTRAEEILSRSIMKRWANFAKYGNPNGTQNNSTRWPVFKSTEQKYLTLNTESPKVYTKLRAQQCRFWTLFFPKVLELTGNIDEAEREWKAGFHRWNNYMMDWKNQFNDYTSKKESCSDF

Structure (SMILES) | BChE TACRINE RATIO
Nc1c2c(nc3c(O)cccc13)CCC2 [Compound 12, 9-Amino-5-hydroxy-2,3-dihydro-1H-cyclopenta [b] quinoline] | 0.050
Nc1c2c(nc3c(F)cccc13)CCC2 [Compound 13, 9-Amino-5-fluoro-2,3-dihydro-1H-cyclopenta-[1,2-b] quinoline] | 0.093
Nc1c2c(nc3cccc(F)c13)CCC2 [Compound 14, 9-Amino-8-fluoro-2,3-dihydro-1H-cyclopenta-[b] quinoline] | 0.017
Nc1c2c(nc3cc(F)ccc13)CCC2 [Compound 15, 9-amino-6-fluoro-2,3-dihydro-1H-cyclopenta [b] quinoline] | 0.610
Nc1c2c(nc3cccc(Cl)c13)CCC2 [Compound 16, 9-Amino-8-chloro-2,3-dihydro-1H-cyclopenta[b]quinoline] | 0.047
Nc1c2c(nc3ccc(Cl)cc13)CCC2 [Compound 19, 9-Amino-7-chloro-2,3-dihydro-1H-cyclopenta-[b] quinoline] | 0.019
Nc1c2c(nc3c(Cl)cccc13)CCC2 [Compound 22, 9-Amino-5-chloro-2,3-dihydro-1H-cyclopenta[b] quinoline] | 0.002
Nc1c2c(nc3ccccc13)CCC2 [Compound 29, 9-Amino-2,3-dihydro-[1H ]-cyclopenta-[b]-quinoline] | 0.481

Same assay, conditions: Table 2; read-out: BChE IC50

Structure (SMILES) | pIC50
Nc1c2c(nc3c(O)cccc13)CCC2 [Compound 12, 9-Amino-5-hydroxy-2,3-dihydro-1H-cyclopenta [b] quinoline] | 6.30
Nc1c2c(nc3c(F)cccc13)CCC2 [Compound 13, 9-Amino-5-fluoro-2,3-dihydro-1H-cyclopenta-[1,2-b] quinoline] | 6.57
Nc1c2c(nc3cccc(F)c13)CCC2 [Compound 14, 9-Amino-8-fluoro-2,3-dihydro-1H-cyclopenta-[b] quinoline] | 5.82
Nc1c2c(nc3cc(F)ccc13)CCC2 [Compound 15, 9-amino-6-fluoro-2,3-dihydro-1H-cyclopenta [b] quinoline] | 7.39
Nc1c2c(nc3cccc(Cl)c13)CCC2 [Compound 16, 9-Amino-8-chloro-2,3-dihydro-1H-cyclopenta[b]quinoline] | 6.28
Nc1c2c(nc3ccc(Cl)cc13)CCC2 [Compound 19, 9-Amino-7-chloro-2,3-dihydro-1H-cyclopenta-[b] quinoline] | 5.88
Nc1c2c(nc3c(Cl)cccc13)CCC2 [Compound 22, 9-Amino-5-chloro-2,3-dihydro-1H-cyclopenta[b] quinoline] | 4.84
